Data as given in publication PMC6679371, “Synthesis and Evaluation of Novel Pyrazole Ethandiamide Compounds as Inhibitors of Human THP-1 Monocytic Cell Neurotoxicity” (Cells, 2019).
pIC50: −log10 of the molar value. “Also recorded” adds a separate entry of the source.

How the values were obtained:
[1] = system: immune-stimulated human THP-1 monocytic cells (toxicity toward SH-SY5Y neuronal cells); test: Anti-neurotoxic activity: supernatants of compound-treated stimulated THP-1 cells transferred to SH-SY5Y cells (MTT assay); type: cell-based; conditions: for pIC50: Homo sapiens, estimated from Figure 4, read-out: IC50 for reducing toxic effect of stimulated THP-1 supernatants on SH-SY5Y cells
Method: (§1) The MTT assay was performed as described by Mosmann and by Hansen et al.. Cell viability was determined by adding MTT to the cell cultures to reach a final concentration of 500 μg mL^−1. Following one h incubation at 37 °C, the dark purple crystals formed by viable cells were dissolved by adding to the wells an equal volume of the extraction buffer containing 20% sodium dodecyl sulfate and 50% N,N-dimethylformamide, pH 4.7. After overnight incubation at 37 °C, 100 μL aliquots of MTT solutions were transferred to a 96-well plate, and a FLUOstar Omega platereader (BMG Labtech, Offenburg, Germany) was used to measure the optical densities at 570 nm. Cell viability in various samples was calculated as percent of the optical density value obtained with cells incubated in fresh cell culture medium only.
(§2) The anti-neurotoxic activity of the compounds was evaluated using a method described previously. Human monocytic THP-1 cells were transferred to 24-well plates in 800 µL aliquots of 5 × 10^5 cells mL^−1 per well. The cells were pre-incubated with varying concentrations of pyrazole derivatives or their DMSO vehicle solution for 15 min before stimulation with a combination of lipopolysaccharide (LPS, 0.5 µg mL^−1) and human interferon-γ (IFN-γ, 150 U mL^−1). […] After 24 h incubation, 400 µL of supernatants from THP-1 cells was transferred to SH-SY5Y cells (seeded 24 h earlier in 24-well plates; 400 µL of 2 × 10^5 cells mL^−1). The viability of THP-1 cells was measured by the MTT assay immediately after the transfer of the supernatants. The effects of THP-1 cell supernatants on SH-SY5Y neuronal cell viability were measured by the MTT assay after 72 h incubation. […] The concentrations of stimuli and incubation times of THP-1 cells with the stimuli were selected in preliminary experiments so that significant partial killing of SH-SY5Y cells was achieved (20–30% viable cells left), which could be a result of the combined action of cytotoxins secreted by THP-1 cells and depletion of nutrients from the cell culture medium by the stimulated THP-1 cells.

[2] = system: stimulated human monocytic THP-1 cells; test: Viability of LPS plus IFN-γ stimulated THP-1 cells (MTT assay); type: cell-based; conditions: 1–100 μM, added 15 min before LPS plus IFN-γ, 24 h
Method: as §1, §2

SH-SY5Y cells [3] = test: Neuroprotective activity: compounds added directly to SH-SY5Y cells with stimulated THP-1 supernatants (MTT assay); type: cell-based, human
Method: as §1
SH-SY5Y cells were seeded into 24-well plates (400 µL at 2 × 10^5 cells mL^−1). After 24 h incubation, the cell culture medium was replaced with 400 µL of supernatants from THP-1 cells that had been stimulated for 24 h with LPS plus IFN-γ, as described in 2.6. Varying concentrations of the compounds or the DMSO vehicle solution were added directly to SH-SY5Y cells at the time of the supernatant transfer. The viability of SH-SY5Y cells was measured by the MTT assay 72 h later.

[4] = system: human PC-3 prostate cancer cells; test: Cytotoxicity of pyrazole derivatives to PC-3 cells (MTT assay); type: cell-based; conditions: 100 μM (highest concentration tested), 48 h
Method: as §1
PC-3 prostate cancer cells were transferred to 24-well plates in 500 µL aliquots of 1.5 × 10^5 cells mL^−1 per well. Varying concentrations of the pyrazole derivatives or the 0.5% DMSO vehicle were added to the cells. After 48 h incubation, cell viability was measured by using the MTT assay.

SH-SY5Y cells [5] = system: SH-SY5Y cells; parameters: method as in PMID 20609589; conditions: earlier report; cited from earlier work

melting point [°C] | SMILES | pIC50 [1] | toxicity to stimulated THP-1 cells (cell viability, MTT) [2] | other results
250 to 253 | CN(C)C(=O)C(=O)Nc1c(C#N)cnn1-c1ccccc1 [2c] | 4.30 to 5.00 | None of these six derivatives were toxic | 
108 to 110 | C=CCNC(=O)C(=O)Nc1c(C#N)cnn1-c1ccccc1 [2d] |  | None of these six derivatives were toxic | change in SH-SY5Y cell viability, compound added directly (SH-SY5Y cells [3]; 100 μM, 72 h): small but significant decrease in SH-SY5Y cell viability; change in SH-SY5Y cell viability ([1]; 100 μM, supernatant transfer from treated THP-1 cells, 72 h): small but significant decrease in SH-SY5Y cell viability; also recorded: small yet significant reduction of SH-SY5Y cell viability; protective (anti-neurotoxic) effect ([1]; 1–100 μM): no protective effect; change in PC-3 cell viability [4]: small yet significant increase in cell viability
237 to 239 | N#Cc1cnn(-c2ccccc2)c1NC(=O)C(=O)Nc1ccc(O)cc1 [2f] |  |  | 
139 to 141 | CN(C)CCOC(=O)C(=O)Nc1c(C#N)cnn1-c1ccccc1 [compound 3] | 4.30 to 5.00 | None of these six derivatives were toxic | direct neuroprotective effect on SH-SY5Y cells (SH-SY5Y cells [3]; 1–100 μM, added at the time of supernatant transfer): neuroprotective effect; viability at 100 µM (SH-SY5Y cells [3]; Homo sapiens, SH-SY5Y, 100 μM, 72 h, without compound 20–30%): > 40%

More lines, now with the values behind:

SMILES | melting point [°C] | pIC50 [1] | toxicity to stimulated THP-1 cells (cell viability, MTT) [2] | other results
N#Cc1cnn(-c2ccccc2)c1NC(=O)C(=O)NCCCCCCCCCN [2a] | 108 to 110 | 4.00 to 4.30 | None of these six derivatives were toxic | concentrations at which the protective effect was statistically significant ([1]; tested 1–100 μM, Dunnett's post-hoc test): 100 µM
N#Cc1cnn(-c2ccccc2)c1NC(=O)C(=O)N(C1CCCCC1)C1CCCCC1 [2b] | 188 to 190 | 4.30 to 5.00 | None of these six derivatives were toxic | 
N#Cc1cnn(-c2ccccc2)c1NC(=O)C(=O)Nc1ccc(N)cc1 [2e] | 258 to 261 | 4.30 to 5.00 | None of these six derivatives were toxic | 
N#Cc1cnn(-c2ccccc2)c1NC(=O)C(=O)Nc1c(C#N)cnn1-c1ccccc1 [compound 1] |  |  |  | direct neuroprotective activity (SH-SY5Y cells [5]): showed this effect
